Measurements from US6613956B1, “PI 3-kinase fusion mutants and uses thereof” (Chiron Corporation, priority 1996, dated 2003).

Tests used:
Akt = biological target: T1, Akt (Mus musculus, UniProt P31750); assay: In vitro protein kinase assay of immobilized Akt preincubated with phospholipid vesicles, histone H2B as substrate; assay type: biochemical; conditions: for increases Akt activity: summary statement for the three PI 3-kinase products; for stimulation of Akt: p110*-generated PI3,4P2 in PC vesicles, relative to unstimulated Akt
T1 construct: made in house; host or cells: COS-7 cells (transient transfection, anti-HA 12CA5 immunoprecipitation on Protein A-Sepharose)
T1 sequence (P31750 whole entry): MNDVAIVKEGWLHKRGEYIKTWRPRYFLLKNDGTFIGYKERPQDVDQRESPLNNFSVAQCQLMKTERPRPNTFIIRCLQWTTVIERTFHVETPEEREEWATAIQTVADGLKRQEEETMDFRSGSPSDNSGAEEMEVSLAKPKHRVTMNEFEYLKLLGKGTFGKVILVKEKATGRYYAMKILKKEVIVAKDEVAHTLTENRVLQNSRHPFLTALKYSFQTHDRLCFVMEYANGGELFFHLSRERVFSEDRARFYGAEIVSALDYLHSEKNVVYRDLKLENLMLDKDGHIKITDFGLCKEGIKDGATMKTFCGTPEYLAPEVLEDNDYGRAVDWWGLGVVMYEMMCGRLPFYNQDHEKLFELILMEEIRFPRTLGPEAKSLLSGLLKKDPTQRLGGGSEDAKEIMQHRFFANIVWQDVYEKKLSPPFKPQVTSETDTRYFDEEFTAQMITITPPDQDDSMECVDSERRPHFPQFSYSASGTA

Akt RC25 = biological target: T2, Akt RC25 (Homo sapiens, UniProt P31749, R25C); assay: In vitro kinase assay of PH domain point mutant Akt RC25 with PI3,4P2 vesicles; assay type: biochemical; conditions: vesicles generated with p110*
T2 construct: made in house; host or cells: COS-7 cells (transient transfection, anti-HA 12CA5 immunoprecipitation on Protein A-Sepharose)
T2 sequence (P31749 whole entry R25C, the tested form may be a part): as the sequence (P31750 whole entry) above, with N2S, R25C, S50A, A100T, R112K, T117E, T389K, N410G, D415H counted along it
Source text: We determined that the PH domain at the Akt N-terminus is essential for PI3,4P2 mediated stimulation. It has previously been reported that the stimulation of the kinase activity of Akt by PI 3-kinase in vivo is dependent on the PH domain at its immediate N-terminus. We determined that PI3,4P2 mediates its stimulatory effect on Akt through its PH domain by introducing a point mutation in the PH domain of Akt (Akt RC25) which abrogates PI 3-kinase-mediated Akt activation in vivo. A kinase-deficient Akt, Akt KA179, was tested as an additional control. We incubated Akt, Akt RC25 and Akt KA179 proteins with PI3,4P2 in phospholipid vesicles using p110* as described above. […] The kinase-deficient Akt KA179 had no detectable enzymatic activity.
The assay for the in vitro protein kinase activity of Akt was conducted with immobilized Akt that was preincubated with or without mixed phospholipid vesicles (20 μl) for 10 min and subjected to an in vitro protein kinase assay using histone H2B (Boehringer Mannheim) as a substrate. […] The reactions were stopped by the addition of 8 μl Lammli-sample buffer and 22 μi of each reaction mixture were analyzed by 16% SDS-PAGE. The relative amounts of incorporated radioactivity were visualized by autoradiography and quantitated using a Molecular Imager System (BioRad).

## PI 3-phosphate [PI3P]
Akt
  increases Akt activity: not
Akt; vesicles containing synthetic PI3P, any conditions
  stimulation of Akt kinase activity: No stimulation

## phosphatidylinositol 3,4 bisphosphate [PI3,4P2]
Akt RC25
  activation of Akt RC25 by PI3,4P2 containing vesicles: not activated
Akt; PE/PS vesicles
  Akt activation: did not allow activation of Akt
Akt; 4 μM
  stimulation of Akt: 9 fold
Akt; average
  stimulation of Akt: 3 fold
Akt; presence of PS in the PI3,4P2/PC vesicles
  Akt activation: interfered with Akt activation
Akt
  increases Akt activity: increases Akt activity
Akt; synthetic PI3,4P2 in either PE or PS vesicles
  Akt activation: No activation
Akt; synthetic dipalmitoyl derivatives of PI3,4P2, 260 nM to 1.3 μM
  further increase in Akt activation: No further increase
Akt; synthetic dipalmitoylated PI3,4P2 in PC vesicles
  increase in kinase activity of Akt: approximately 2.5 fold
Akt; wild-type Akt, vesicles generated with p110*
  activation of Akt by PI3,4P2 containing vesicles: efficiently activated
